Measurements from patent publication US8975289B2, “Benzyl aralkyl ether compounds, method for preparing same, intermediate compounds, use of said compounds, method for treatment and/or prevention, pharmaceutical composition and medicament containing same” (priority 2009, dated 2015).

Test system: three different species of yeast and two distinct species of bacteria
Experiment: Growth inhibition of the yeast and bacteria strains of Table 5, summary
Assay type: cell-based
Method: For the experiments of the present invention (i) yeast strains obtained from clinical isolates and laboratory isolates, and (ii) bacterial strains obtained from laboratory isolates were used, as described in Table 5 as follows.
The yeast strains were grown in culture medium Sabouraud Dextrose Agar maintained at a temperature of 35° C. for 48 hours.
The bacterial strains were grown in culture medium Triptic Soy Agar at 35° C. for two to six hours (or until the turbidity of a McFarland standard solution equal to 0.5). 5.2 Mounting of Preparations and Test For the experiments, compound 1-[2-(2,4-dichlorophenyl)-2-{[4-(trifluoromethyl)benzyl]oxy}ethyl]-1H-imidazole (BL-123) in the form of its nitrate salt, 1-[2-(2,4-dichlorophenyl)]-2-({4-[(2-phenyl)-2H-tetrazole]benzyl}oxy)ethyl]-1H-imidazole (BL-137), and miconazole nitrate were used. The compounds were dissolved in dimethyl sulfoxide (DMSO) to match the final concentration of the compound equal to or less than 1%.
The methodology used to test the sensitivity of the agent was broth microdilution according to the method described in Standard M27-A2 (Reference method for broth dilution tests to determine the sensitivity of yeasts to antifungal therapy-second edition, NCCLS, volume 22 number 15, USA, 2002) as follows.
The yeast strains were grown according to item 5.1.a to obtain a culture containing between 1×10^6 and 5×10^6 CFU/mL. […]

## FC(F)(F)c1ccc(COC(Cn2ccnc2)c2ccc(Cl)cc2Cl)cc1 (stereo not shown) [BL-123, 1-[2-(2,4-dichlorophenyl)-2-{[4-(trifluoromethyl)benzyl]oxy}ethyl]-1H-imidazole]
  Inhibitory effect on growth (in words): exert an inhibitory effect on the growth
